According to patent US9708314B2, “Heterocyclic amide compound” (NISSAN CHEMICAL INDUSTRIES, LTD., priority 2013, dated 2017):

Columns and labels:
Assay type in all cases: in vivo
[1] = system: Echinochloa oryzacola Vasing.; assay: Test Example 2: herbicidal activity, application during weed generation in submerged conditions; settings: Eighteenth Table; application herbicide amount 320 g/ha
Method in brief: (§1)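 Seeds were sown together in alluvial soil kept under 4 cm of water and grown at 25 °C to 30 °C. Once plants reached the one- to two-leaf stage, the diluted emulsion was applied to the water surface at a predetermined g/ha amount, and effects were rated 0–5 after three weeks.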

Monochoria vaginalis = assay: as above; settings: Eighteenth Table; application herbicide amount 320 g/ha
Method in brief: as §1

Scirpus juncoides = assay: as above; settings: Eighteenth Table; application herbicide amount 320 g/ha
Method in brief: as §1

Abutilon theophrasti = assay: Test Example 4: herbicidal effect by application to foliage (diluvial soil, plastic box); settings: for M (Abutilon theophrasti) herbicidal effect grade: foliage application; for M: herbicidal effect on Abutilon theophrasti: application to foliage, application herbicide amount 320 g/ha
Method in brief: (§2)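 Greenhouse plants (25° C. to 30° C., 14 d, diluvial soil) receive a foliar spray of water-diluted emulsifiable formulation at defined g/ha. Grading after 3 weeks uses a six-step herbicidal-ratio scale, with 4 covering 70% to <90% and 1 covering 5% to <20%.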

Alopecurus myosuroides = assay: as above; settings: for J (Alopecurus myosuroides) herbicidal effect grade: foliage application; for J: herbicidal effect on Alopecurus myosuroides: application to foliage, application herbicide amount 320 g/ha
Method in brief: as §2

Amaranthus retroflexus = assay: as above; settings: for N (Amaranthus retroflexus) herbicidal effect grade: foliage application; for N: herbicidal effect on Amaranthus retroflexus: application to foliage, application herbicide amount 320 g/ha
Method in brief: as §2

Apera spica-venti. = assay: as above; settings: for L (Apera spica-venti.) herbicidal effect grade: foliage application; for L: herbicidal effect on Apera spica-venti.: application to foliage, application herbicide amount 320 g/ha
Method in brief: as §2

Avena fatua = assay: as above; settings: for I (Avena fatua) herbicidal effect grade: foliage application; for I: herbicidal effect on Avena fatua: application to foliage, application herbicide amount 320 g/ha
Method in brief: as §2

Chenopodium album = assay: as above; settings: for O (Chenopodium album) herbicidal effect grade: foliage application; for O: herbicidal effect on Chenopodium album: application to foliage, application herbicide amount 320 g/ha
Method in brief: as §2

Digitaria ciliaris = assay: as above; settings: for F (Digitaria ciliaris) herbicidal effect grade: foliage application; for F: herbicidal effect on Digitaria ciliaris: application to foliage, application herbicide amount 320 g/ha
Method in brief: as §2

[2] = system: Echinochloa crus-galli var. crus-galli; assay: as above; settings: for H (Echinochloa crus-galli var. crus-galli) herbicidal effect grade: foliage application; for H: herbicidal effect on Echinochloa crus-galli var. crus-galli: application to foliage, application herbicide amount 320 g/ha
Method in brief: as §2

Galium spurium = assay: as above; settings: for Q (Galium spurium) herbicidal effect grade: foliage application; for Q: herbicidal effect on Galium spurium: application to foliage, application herbicide amount 320 g/ha
Method in brief: as §2

Lolium multiflorum Lam. = assay: as above; settings: for K (Lolium multiflorum Lam.) herbicidal effect grade: foliage application; for K: herbicidal effect on Lolium multiflorum Lam.: application to foliage, application herbicide amount 320 g/ha
Method in brief: as §2

Setaria viridis = assay: as above; settings: for G (Setaria viridis) herbicidal effect grade: foliage application; for G: herbicidal effect on Setaria viridis: application to foliage, application herbicide amount 320 g/ha
Method in brief: as §2

Veronica persica = assay: as above; settings: for R (Veronica persica) herbicidal effect grade: foliage application; for R: herbicidal effect on Veronica persica: application to foliage, application herbicide amount 320 g/ha
Method in brief: as §2

[3] = Application herbicide amount 320 g/ha

SMILES	A (Echinochloa oryzicola Vasing.) herbicidal ratio grade [1]	C (Monochoria vaginalis) herbicidal ratio grade (Monochoria vaginalis)	B (Scirpus juncoides) herbicidal ratio grade (Scirpus juncoides)	M: herbicidal effect on Abutilon theophrasti (Abutilon theophrasti)	J: herbicidal effect on Alopecurus myosuroides (Alopecurus myosuroides)	N: herbicidal effect on Amaranthus retroflexus (Amaranthus retroflexus)	L: herbicidal effect on Apera spica-venti. (Apera spica-venti.)	I: herbicidal effect on Avena fatua (Avena fatua)	O: herbicidal effect on Chenopodium album (Chenopodium album)	F: herbicidal effect on Digitaria ciliaris (Digitaria ciliaris)	H: herbicidal effect on Echinochloa crus-galli var. crus-galli [2]	Q: herbicidal effect on Galium spurium (Galium spurium)	K: herbicidal effect on Lolium multiflorum Lam. (Lolium multiflorum Lam.)	G: herbicidal effect on Setaria viridis (Setaria viridis)	R: herbicidal effect on Veronica persica (Veronica persica)	further results
COCCOCc1nnc2c(C(=O)Nc3nnco3)ccc(C(F)(F)F)n12 [1-107]	5 (Herbicidal ratio of 90% or more (almost completely withered))	4 (Herbicidal ratio of 70% or more and less than 90%)	4 (Herbicidal ratio of 70% or more and less than 90%)													M (Abutilon theophrasti) herbicidal effect grade (Abutilon theophrasti; [3]): 4 (Herbicidal ratio of 70% or more and less than 90%); J (Alopecurus myosuroides) herbicidal effect grade (Alopecurus myosuroides; [3]): 3 (Herbicidal ratio of 40% or more and less than 70%); N (Amaranthus retroflexus) herbicidal effect grade (Amaranthus retroflexus; [3]): 5 (Herbicidal ratio of 90% or more (almost completely withered)); L (Apera spica-venti.) herbicidal effect grade (Apera spica-venti.; [3]): 3 (Herbicidal ratio of 40% or more and less than 70%); I (Avena fatua) herbicidal effect grade (Avena fatua; [3]): 4 (Herbicidal ratio of 70% or more and less than 90%); O (Chenopodium album) herbicidal effect grade (Chenopodium album; [3]): 5 (Herbicidal ratio of 90% or more (almost completely withered)); F (Digitaria ciliaris) herbicidal effect grade (Digitaria ciliaris; [3]): 5 (Herbicidal ratio of 90% or more (almost completely withered)); H (Echinochloa crus-galli var. crus-galli) herbicidal effect grade [2, 3]: 5 (Herbicidal ratio of 90% or more (almost completely withered)); Q (Galium spurium) herbicidal effect grade (Galium spurium; [3]): 4 (Herbicidal ratio of 70% or more and less than 90%); K (Lolium multiflorum Lam.) herbicidal effect grade (Lolium multiflorum Lam.; [3]): 3 (Herbicidal ratio of 40% or more and less than 70%); G (Setaria viridis) herbicidal effect grade (Setaria viridis; [3]): 5 (Herbicidal ratio of 90% or more (almost completely withered)); R (Veronica persica) herbicidal effect grade (Veronica persica; [3]): 5 (Herbicidal ratio of 90% or more (almost completely withered))
CSCc1nnc2c(C(=O)Nc3nnnn3C)ccc(C(F)(F)F)n12 [2-029]	5 (Herbicidal ratio of 90% or more (almost completely withered))	4 (Herbicidal ratio of 70% or more and less than 90%)	4 (Herbicidal ratio of 70% or more and less than 90%)													M (Abutilon theophrasti) herbicidal effect grade (Abutilon theophrasti; 320 g/ha): 5 (Herbicidal ratio of 90% or more (almost completely withered)); J (Alopecurus myosuroides) herbicidal effect grade (Alopecurus myosuroides; 320 g/ha): 5 (Herbicidal ratio of 90% or more (almost completely withered)); N (Amaranthus retroflexus) herbicidal effect grade (Amaranthus retroflexus; 320 g/ha): 5 (Herbicidal ratio of 90% or more (almost completely withered)); L (Apera spica-venti.) herbicidal effect grade (Apera spica-venti.; 320 g/ha): 5 (Herbicidal ratio of 90% or more (almost completely withered)); I (Avena fatua) herbicidal effect grade (Avena fatua; 320 g/ha): 5 (Herbicidal ratio of 90% or more (almost completely withered)); O (Chenopodium album) herbicidal effect grade (Chenopodium album; 320 g/ha): 5 (Herbicidal ratio of 90% or more (almost completely withered)); F (Digitaria ciliaris) herbicidal effect grade (Digitaria ciliaris; 320 g/ha): 5 (Herbicidal ratio of 90% or more (almost completely withered)); H (Echinochloa crus-galli var. crus-galli) herbicidal effect grade ([2]; 320 g/ha): 5 (Herbicidal ratio of 90% or more (almost completely withered)); Q (Galium spurium) herbicidal effect grade (Galium spurium; 320 g/ha): 4 (Herbicidal ratio of 70% or more and less than 90%); K (Lolium multiflorum Lam.) herbicidal effect grade (Lolium multiflorum Lam.; 320 g/ha): 5 (Herbicidal ratio of 90% or more (almost completely withered)); G (Setaria viridis) herbicidal effect grade (Setaria viridis; 320 g/ha): 5 (Herbicidal ratio of 90% or more (almost completely withered)); R (Veronica persica) herbicidal effect grade (Veronica persica; 320 g/ha): 5 (Herbicidal ratio of 90% or more (almost completely withered))
Cn1nnnc1NC(=O)c1ccc(C(F)(F)F)n2c(COc3ccccc3)nnc12 [2-020]	2 (Herbicidal ratio of 20% or more and less than 40%)	0 (Herbicidal ratio of 5% or less (almost no effect))	2 (Herbicidal ratio of 20% or more and less than 40%)	5 (Herbicidal ratio of 90% or more (almost completely withered))	0 (Herbicidal ratio of 5% or less (almost no effect))	4 (Herbicidal ratio of 70% or more and less than 90%)	1 (Herbicidal ratio of 5% or more and less than 20%)	1 (Herbicidal ratio of 5% or more and less than 20%)	5 (Herbicidal ratio of 90% or more (almost completely withered))	3 (Herbicidal ratio of 40% or more and less than 70%)	3 (Herbicidal ratio of 40% or more and less than 70%)	2 (Herbicidal ratio of 20% or more and less than 40%)	1 (Herbicidal ratio of 5% or more and less than 20%)	3 (Herbicidal ratio of 40% or more and less than 70%)	4 (Herbicidal ratio of 70% or more and less than 90%)	
COc1ccc(-c2nnc3c(C(=O)Nc4nnnn4C)ccc(C(F)(F)F)n23)cc1 [2-011]	4 (Herbicidal ratio of 70% or more and less than 90%)	4 (Herbicidal ratio of 70% or more and less than 90%)	3 (Herbicidal ratio of 40% or more and less than 70%)	5 (Herbicidal ratio of 90% or more (almost completely withered))	3 (Herbicidal ratio of 40% or more and less than 70%)	5 (Herbicidal ratio of 90% or more (almost completely withered))	3 (Herbicidal ratio of 40% or more and less than 70%)	3 (Herbicidal ratio of 40% or more and less than 70%)	5 (Herbicidal ratio of 90% or more (almost completely withered))	5 (Herbicidal ratio of 90% or more (almost completely withered))	5 (Herbicidal ratio of 90% or more (almost completely withered))	3 (Herbicidal ratio of 40% or more and less than 70%)	2 (Herbicidal ratio of 20% or more and less than 40%)	3 (Herbicidal ratio of 40% or more and less than 70%)	5 (Herbicidal ratio of 90% or more (almost completely withered))	
COCc1nnc2c(C(=O)Nc3nnnn3C)ccc(C(F)(F)F)n12 [2-010, 3-(Methoxymethyl)-N-(1-methyl-1H-tetrazol-5-yl)-5-(trifluoromethyl)-[1,2,4]triazol o[4,3-a]pyridine-8-carboxamide]	5 (Herbicidal ratio of 90% or more (almost completely withered))	4 (Herbicidal ratio of 70% or more and less than 90%)	4 (Herbicidal ratio of 70% or more and less than 90%)	5 (Herbicidal ratio of 90% or more (almost completely withered))	3 (Herbicidal ratio of 40% or more and less than 70%)	5 (Herbicidal ratio of 90% or more (almost completely withered))	2 (Herbicidal ratio of 20% or more and less than 40%)	4 (Herbicidal ratio of 70% or more and less than 90%)	5 (Herbicidal ratio of 90% or more (almost completely withered))	4 (Herbicidal ratio of 70% or more and less than 90%)	5 (Herbicidal ratio of 90% or more (almost completely withered))	4 (Herbicidal ratio of 70% or more and less than 90%)	3 (Herbicidal ratio of 40% or more and less than 70%)	3 (Herbicidal ratio of 40% or more and less than 70%)	5 (Herbicidal ratio of 90% or more (almost completely withered))	
